In the supplement of paper PMC10307832:

Columns and labels:
Assay in all cases: relative viability (nuclei count vs DMSO), 5 days (fraction); higher = more cells survive
[1] = compound: COc1cc2c(Oc3ccc4[nH]c(C)cc4c3F)ncnc2cc1OCCCN1CCCC1 [Cediranib] + CC(=O)c1c(C)c2cnc(Nc3ccc(N4CCNCC4)cn3)nc2n(C2CCCC2)c1=O [Palbociclib] (partner 0.5 µM)
In short: (§1)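 Lung cancer cell lines in 1536-well plates got either a single drug or a fixed anchor-drug dose together with five library-drug doses (not always all listed) in √10 steps, by pin tool, on the day after seeding. Nuclei were counted after 5 days, and relative viability is the treated-to-vehicle ratio of nuclei counts. Values are medians of duplicate plates.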

[2] = compound: COc1cc2c(Oc3ccc4[nH]c(C)cc4c3F)ncnc2cc1OCCCN1CCCC1 [Cediranib] + Cc1cc(Nc2cc(N3CCN(C)CC3)nc(Sc3ccc(NC(=O)C4CC4)cc3)n2)n[nH]1 [Tozasertib] (partner 0.1 µM)
In short: as §1

[3] = compound: Nc1ncn([C@H]2C[C@H](O)[C@@H](CO)O2)c(=O)n1 [Decitabine] + COc1cccc2cc(-c3nc([C@H]4CC[C@H](C(=O)O)CC4)n4ncnc(N)c34)[nH]c12 [OSI-027] (partner 0.5 µM)
In short: as §1

[4] = compound: O=C(C[C@H]1NCCC[C@@H]1O)Cn1cnc2cc(Br)c(Cl)cc2c1=O (racemic) [Halofuginone] + N=C(N)NC(=N)NCCc1ccccc1 [Phenformin] (partner 250 µM)
In short: as §1

| Cell Line | relative viability ([1]; first compound 0.04 µM) | relative viability ([1]; first compound 0.1265 µM) | relative viability ([1]; first compound 0.4 µM) | relative viability ([1]; first compound 1.265 µM) | relative viability ([1]; first compound 4 µM) | relative viability ([2]; first compound 0.04 µM) | relative viability ([2]; first compound 0.1265 µM) | relative viability ([2]; first compound 0.4 µM) | relative viability ([2]; first compound 1.265 µM) | relative viability ([2]; first compound 4 µM) | relative viability ([3]; first compound 0.04 µM) | relative viability ([3]; first compound 0.1265 µM) | relative viability ([3]; first compound 0.4 µM) | relative viability ([3]; first compound 1.265 µM) | relative viability ([3]; first compound 4 µM) | relative viability ([4]; first compound 0.001 µM) | relative viability ([4]; first compound 0.003162 µM) | relative viability ([4]; first compound 0.01 µM) | relative viability ([4]; first compound 0.03162 µM) | relative viability ([4]; first compound 0.1 µM) |
| --- | --- | --- | --- | --- | --- | --- | --- | --- | --- | --- | --- | --- | --- | --- | --- | --- | --- | --- | --- | --- |
| NCI-H2342 | 0.562 | 0.52 | 0.451 | 0.534 | 0.479 | 0.54 | 0.575 | 0.568 | 0.536 | 0.484 | 0.544 | 0.583 | 0.565 | 0.595 | 0.599 | 0.719 | 0.566 | 0.561 | 0.688 | 0.547 |
| SW 1573 | 0.362 | 0.412 | 0.394 | 0.389 | 0.382 | 0.193 | 0.179 | 0.136 | 0.153 | 0.18 | 0.469 | 0.558 | 0.572 | 0.273 | 0.21 | 0.411 | 0.389 | 0.378 | 0.357 | 0.205 |
| NCI-H1993 |  | 0.634 | 0.64 | 0.656 | 0.637 | 0.607 | 0.586 | 0.596 | 0.565 | 0.734 | 0.593 | 0.599 | 0.519 | 0.514 | 0.548 | 0.436 | 0.554 | 0.448 | 0.535 | 0.577 |
| NCI-H661 | 0.452 | 0.441 | 0.405 | 0.391 | 0.442 | 0.255 | 0.365 | 0.338 | 0.349 | 0.372 | 0.55 | 0.628 | 0.474 | 0.374 | 0.346 | 0.296 | 0.298 | 0.295 | 0.274 | 0.284 |
| NCI-H520 | 0.262 | 0.22 | 0.175 | 0.162 | 0.179 | 0.57 | 0.35 | 0.543 |  | 0.426 | 0.309 | 0.242 | 0.234 | 0.215 | 0.21 | 0.606 | 0.78 | 0.569 | 0.582 | 0.193 |
| ChaGo-K-1 | 0.979 | 0.922 | 0.961 | 0.996 | 0.986 | 0.214 | 0.263 | 0.236 | 0.202 | 0.209 | 0.493 | 0.483 | 0.299 | 0.32 | 0.41 | 0.473 | 0.486 | 0.573 | 0.392 | 0.462 |
| NCI-H2085 | 0.5 | 0.48 | 0.469 | 0.473 | 0.466 | 0.756 | 0.877 | 0.757 | 0.836 | 0.784 | 0.47 | 0.587 | 0.472 | 0.376 | 0.365 | 0.685 | 0.703 | 0.686 | 0.705 | 0.574 |
| NCI-H1651 | 0.534 | 0.551 | 0.499 | 0.523 | 0.527 | 0.619 | 0.696 | 0.596 | 0.676 | 0.815 | 0.586 | 0.842 | 0.777 | 0.573 | 0.478 | 0.377 | 0.34 | 0.333 | 0.35 | 0.276 |
| RERF-LC-KJ | 1.15 | 1.02 | 1 | 1.15 | 1.13 | 0.598 | 0.535 | 0.469 | 0.544 | 0.464 | 0.529 | 0.559 |  | 0.457 | 0.471 | 0.447 | 0.436 | 0.381 | 0.416 | 0.423 |
| NCI-H1755 | 0.441 | 0.429 | 0.436 | 0.441 | 0.422 | 0.54 | 0.481 | 0.532 | 0.595 | 0.547 | 0.642 | 0.669 | 0.534 | 0.571 | 0.52 | 0.636 | 0.629 | 0.617 | 0.665 | 0.615 |
| SK-MES-1 | 0.304 | 0.311 | 0.328 | 0.283 | 0.324 | 0.903 | 0.917 | 0.908 | 0.924 | 0.898 | 0.508 | 0.529 | 0.384 | 0.188 | 0.203 | 0.657 | 0.717 | 0.621 | 0.556 | 0.228 |
| NCI-H2126 | 0.349 | 0.358 | 0.359 | 0.349 | 0.314 | 0.84 | 0.916 | 0.77 | 0.777 | 0.773 | 0.659 | 0.67 | 0.489 | 0.465 | 0.44 | 0.538 | 0.56 | 0.511 | 0.512 | 0.488 |
| EPLC-272H | 0.297 |  | 0.312 | 0.327 | 0.318 | 0.267 |  | 0.31 |  | 0.297 |  | 0.288 | 0.11 | 0.248 | 0.186 | 0.314 | 0.267 | 0.311 | 0.312 | 0.286 |
| NCI-H1975 | 0.62 | 0.608 | 0.491 | 0.578 | 0.547 | 0.822 | 0.809 | 0.699 | 0.822 | 0.768 | 0.516 | 0.378 | 0.32 | 0.277 | 0.256 | 0.403 | 0.397 | 0.422 | 0.356 | 0.365 |
| NCI-H1563 |  |  |  |  |  |  |  |  |  |  | 0.791 | 0.811 | 0.767 | 0.774 | 0.76 | 0.659 | 0.638 | 0.615 | 0.602 | 0.549 |
| NCI-H1792 | 0.599 | 0.607 | 0.584 | 0.739 | 0.682 |  |  |  |  |  | 0.74 | 0.727 | 0.712 | 0.539 | 0.505 | 0.233 | 0.29 | 0.256 | 0.223 | 0.184 |
| NCI-H1623 |  |  |  |  |  | 0.453 |  | 0.427 | 0.469 | 0.43 | 0.359 | 0.438 | 0.427 | 0.4 | 0.363 | 0.624 | 0.548 | 0.59 | 0.576 | 0.432 |
| NCI-H596 |  |  |  |  |  | 1.13 | 0.891 | 0.782 |  | 0.986 | 0.606 | 0.793 |  | 0.581 | 0.477 | 0.732 | 0.84 | 0.742 | 0.938 | 0.569 |
